Measured values: patent US20120100989A1, “3-Aryl-4-(2-thienylmethylene)isoxazol-5(4H)-ones as Fungicides” (Bayer CropScience AG, priority 2010, published 2012)

Test: log P by HPLC on reversed-phase columns (C 18), EEC directive 79/831 Annex V.A8
Format: physicochemical
Description: The log P values were measured according to EEC directive 79/831 Annex V.A8 by HPLC (High Performance Liquid Chromatography) on reversed-phase columns (C 18), using the method below:
The determination was carried out in the acidic range at pH 2.7 using the mobile phases 0.1% aqueous formic acid and acetonitrile; linear gradient from 10% acetonitrile to 95% acetonitrile.

SMILES | log P (pH 2.7) | also measured
O=C1ON=C(c2ccc(F)cc2)C1=Cc1cc(Br)c(Br)s1 [I-63] | 4.45 | 
O=C1ON=C(c2cc(Br)ccc2Cl)C1=Cc1ccc(Cl)s1 [I-138] | 4.45 | 
Cc1ccc(C2=NOC(=O)C2=Cc2ccc([N+](=O)[O-])s2)cc1 [U-18] | 3.62 | 
COc1cccc(C2=NOC(=O)C2=Cc2cc(-c3ccccc3)cs2)c1 [I-52] | 4.27 | 
O=C1ON=C(c2c(F)cccc2F)C1=Cc1cc(-c2ccccc2)cs1 [I-70] | 4.16 | 
O=C1ON=C(c2ccc(Cl)c(Cl)c2)C1=Cc1cccs1 [I-7] | 3.89 | 
Cc1ccc(C=C2C(=O)ON=C2c2cc(Br)ccc2Cl)s1 [I-131] | 4.02 | 
COc1cc(OC)cc(C2=NOC(=O)C2=Cc2ccc(C)s2)c1 [U-20] | 3.48 | 
Cc1ccc(C2=NOC(=O)C2=Cc2sccc2Br)cc1 [I-38] | 4.25 | 
O=C1ON=C(c2ccc(OC(F)(F)F)cc2)C1=Cc1ccc(Cl)s1 [I-36] | 4.42 | 
Cc1ccc(C2=NOC(=O)C2=Cc2cc(-c3ccccc3)cs2)cc1 [I-69] | 5.30 | 
O=C1ON=C(c2ccc(F)cc2)C1=Cc1cc(-c2ccccc2)cs1 [I-67] | 4.27 | 
O=C1ON=C(c2ccc(Cl)cc2Cl)/C1=C/c1cccs1 [I-4, 3-(2,4-dichlorophenyl)-4-(2-thienylmethylene)isoxazol-5(4H)-one] |  | chromatographic logP (reversed-phase C18 HPLC column, preparation examples, HPLC, acidic range pH 2.7, formic acid, read-out: log P (HCOOH)): 3.72
CCOc1ccc(C2=NOC(=O)C2=Cc2ccc(C)s2)cc1 [I-81] | 3.70 | 
O=C1ON=C(c2ccc(Cl)cc2)C1=Cc1ccc([N+](=O)[O-])s1 [I-51] | 3.70 | 
Cc1cc(C)cc(C2=NOC(=O)C2=Cc2ccc(C)s2)c1 [I-87] | 4.08 | 
Cc1ccc(C2=NOC(=O)C2=Cc2ccc(Br)s2)cc1 [I-48] | 4.12 | 
Cc1ccsc1C=C1C(=O)ON=C1c1ccc(C(C)(C)C)cc1 [I-28] | 4.58 | 
O=C1ON=C(c2cc(F)ccc2Cl)C1=Cc1cc(Br)cs1 [I-137] | 3.95 | 
O=C1ON=C(c2ccccc2)C1=Cc1cc(-c2ccccc2)cs1 [I-110] | 4.27 | 

SMILES | log P (pH 2.7) | also measured
Cc1c(C=C2C(=O)ON=C2c2ccccc2)sc2ccccc12 [I-145] | 4.13 | 
O=C1ON=C(c2ccc(F)cc2)C1=Cc1sccc1Br [I-60] | 3.74 | 
O=C1ON=C(c2ccccc2Cl)C1=Cc1ccc(-c2ccccc2)s1 [I-15] | 4.42 | 
O=C1ON=C(c2ccc(Cl)cc2)C1=Cc1cc(-c2ccccc2)cs1 [I-65] | 4.70 | 
O=C1ON=C(c2ccccc2OCc2ccccc2)C1=Cc1cc(-c2ccccc2)cs1 [I-114] | 4.80 | 
O=C1ON=C(c2ccccc2)C1=Cc1cc(Br)c(Br)s1 [I-111] | 4.46 | 
COc1ccc(C2=NOC(=O)C2=Cc2ccc(C)s2)c(OC)c1 [U-25] | 2.97 | 
COc1ccc(C2=NOC(=O)C2=Cc2cc(-c3ccccc3)cs2)cc1 [I-62] | 4.23 | 
O=C1ON=C(c2ccc(Cl)cc2)C1=Cc1sccc1Br [I-61] | 4.23 | 
O=C1ON=C(c2ccc(F)cc2)C1=Cc1ccc(Br)s1 [I-47] | 3.78 | 
Cc1c(C=C2C(=O)ON=C2c2cc(F)ccc2Cl)sc2ccccc12 [I-146] | 4.32 | 
Cc1ccc(C=C2C(=O)ON=C2c2ccccc2OCc2ccccc2)s1 [I-115] | 3.98 | 
CSCc1sc(C=C2C(=O)ON=C2c2ccccc2Cl)cc1Br [I-13] | 4.29 | 
O=C1ON=C(c2ccccc2Cl)C1=Cc1cccs1 [I-6] | 3.17 | 
O=C1ON=C(c2ccc(F)cc2)C1=Cc1ccc(Cl)s1 [I-41] | 3.72 | 
CC(C)(C)c1ccc(C2=NOC(=O)C2=Cc2ccc([N+](=O)[O-])s2)cc1 [I-53] | 4.52 | 
Cc1ccsc1C=C1C(=O)ON=C1c1ccc([N+](=O)[O-])cc1 [U-23] | 3.18 | 
COc1cccc(C2=NOC(=O)C2=Cc2cc(Br)cs2)c1 [U-14] | 3.76 | 
O=C1ON=C(c2cc(F)ccc2Cl)C1=Cc1sccc1Cl [I-136] | 3.95 | 
Cc1ccc(C=C2C(=O)ON=C2c2ccccc2Cl)s1 [I-8] |  | log P (HPLC, acidic range pH 2.7, 0.1% aqueous formic acid and acetonitrile): 3.23

SMILES | log P (pH 2.7) | also measured
Cc1ccc(C2=NOC(=O)C2=Cc2sc3ccccc3c2C)cc1 [I-142] | 4.51 | 
O=C1ON=C(c2ccc(C(F)(F)F)cc2)C1=Cc1ccc(Cl)s1 [I-71] | 4.37 | 
O=C1ON=C(c2cccc(F)c2)C1=Cc1ccc([N+](=O)[O-])s1 [I-101] | 3.41 | 
O=C1ON=C(c2ccc(Cl)cc2)C1=Cc1ccc(Br)s1 [I-50] | 4.21 | 
O=C1ON=C(c2ccc(Cl)cc2)C1=Cc1cc(Br)cs1 [I-31] | 4.19 | 
Cc1ccc(C=C2C(=O)ON=C2c2ccc(Cl)cc2)s1 [I-25] | 3.79 | 
COc1cccc(C2=NOC(=O)C2=Cc2ccc(Br)s2)c1 [I-68] | 3.79 | 
COc1ccc(C2=NOC(=O)C2=Cc2sccc2Br)cc1 [I-39] | 3.65 | 
O=C1ON=C(c2ccccc2OCc2ccccc2)C1=Cc1ccc(Br)s1 [I-113] | 4.48 | 
CC(C)(C)c1ccc(C2=NOC(=O)C2=Cc2ccc(Cl)s2)cc1 [I-40] | 5.08 | 
O=C1ON=C(c2ccc(Cl)cc2)C1=Cc1cc(Br)c(Br)s1 [I-45] | 4.88 | 
CCOc1ccc(C2=NOC(=O)C2=Cc2ccc(Br)s2)cc1 [I-83] | 4.20 | 
O=C1ON=C(c2ccccc2)/C1=C/c1ccc([N+](=O)[O-])s1 [U-41] | 3.27 | 
O=C1ON=C(c2ccccc2)C1=Cc1cc(Br)cs1 [U-36] | 3.71 | 
O=C1ON=C(c2cc(F)ccc2Cl)C1=Cc1ccc(Br)s1 [I-129] | 4.06 | 
O=C1ON=C(c2c(F)cccc2F)C1=Cc1ccc([N+](=O)[O-])s1 [I-76] | 3.25 | 
Cc1ccc(C=C2C(=O)ON=C2c2ccc([N+](=O)[O-])cc2)s1 [U-24] | 3.29 | 
Cc1c(C=C2C(=O)ON=C2c2ccc(F)cc2)sc2ccccc12 [I-143] | 4.18 | 
O=C1ON=C(c2ccccc2Cl)C1=Cc1cc(-c2ccccc2)cs1 [I-14] | 4.36 | 

Now from value to compound, other results behind:

log P (pH 2.7) | SMILES | also measured
3.48 | Cc1cccc(C2=NOC(=O)C2=Cc2cccs2)c1C [I-123] | 
2.68 | COc1ccc(C2=NOC(=O)C2=Cc2cccs2)c(OC)c1 [U-28] | 
3.03 | O=C1ON=C(c2ccccc2C(F)(F)F)C1=Cc1cccs1 [I-21] | 
3.69 | O=C1ON=C(c2c(F)cccc2F)C1=Cc1cc(Br)cs1 [I-77] | 
4.03 | CCOc1ccccc1C1=NOC(=O)C1=Cc1ccc(Br)s1 [I-118] | 
3.06 | COc1ccc(F)cc1C1=NOC(=O)C1=Cc1cccs1 [U-31] | 
3.60 | Cc1cccc(C2=NOC(=O)C2=Cc2sccc2C)c1 [I-86] | 
2.90 | COc1cccc(C2=NOC(=O)C2=Cc2cccs2)c1 [U-6] | 
3.40 | O=C1ON=C(c2cccc(Cl)c2)C1=Cc1cccs1 [I-3] | 
3.67 | O=C1ON=C(c2ccccc2F)C1=Cc1ccc(Cl)s1 [I-106] | 
3.94 | O=C1ON=C(c2ccccc2Cl)C1=Cc1ccc(Br)s1 [I-103] | 
3.01 | O=C1ON=C(c2ccc(F)cc2)C1=Cc1cccs1 [I-2] | 
3.97 | Cc1ccsc1C=C1C(=O)ON=C1c1cc(Br)ccc1Cl [I-132] | 
3.67 | Cc1cccc(C2=NOC(=O)C2=Cc2ccc(C)s2)c1 [I-85] | 
4.02 | Cc1ccsc1C=C1C(=O)ON=C1c1cc(Br)ccc1Br [I-125] | 
3.88 | O=C1ON=C(c2cc(Br)ccc2Br)C1=Cc1cccs1 [I-122] | 
3.13 | O=C1ON=C(c2cccc(F)c2)C1=Cc1cccs1 [I-100] | 
3.55 | Cc1ccsc1C=C1C(=O)ON=C1c1cc(F)ccc1Cl [I-130] | 
4.02 | O=C1ON=C(c2cc(Cl)cc(Cl)c2)C1=Cc1cccs1 [I-34] | 
3.60 | Cc1ccc(C2=NOC(=O)C2=Cc2cccs2)c(C)c1 [I-90] | 
3.82 | Cc1ccsc1C=C1C(=O)ON=C1c1cccc(C(F)(F)F)c1 [I-91] | 
3.73 | O=C1ON=C(c2c(F)cccc2F)C1=Cc1ccc(Br)s1 [I-72] | 

log P (pH 2.7) | SMILES | also measured
3.74 | O=C1ON=C(c2cc(Br)ccc2Cl)C1=Cc1cccs1 [I-128] | 
2.85 | Cc1ccsc1C=C1C(=O)ON=C1c1ccccc1[N+](=O)[O-] [I-135] | 
4.09 | Cc1ccc(C2=NOC(=O)C2=Cc2cc(Br)cs2)cc1 [U-7] | 
3.90 | O=C1ON=C(c2ccccc2Cl)C1=Cc1ccc(Cl)s1 [I-9] | 
3.36 | O=C1ON=C(c2ccccc2I)C1=Cc1cccs1 [I-108] | 
2.94 | O=C1ON=C(c2cccc([N+](=O)[O-])c2)C1=Cc1cccs1 [I-24] | 
3.44 | Cc1ccc(C=C2C(=O)ON=C2c2ccccc2Cl)s1 [I-19] | 
3.50 | O=C1ON=C(c2ccccc2Cl)C1=Cc1ccc([N+](=O)[O-])s1 [I-104] | 
4.14 | Cc1cccc(C2=NOC(=O)C2=Cc2ccc(Br)s2)c1 [I-84] | 
3.74 | O=C1ON=C(c2ccccc2OCc2ccccc2)C1=Cc1cccs1 [I-117] | 
4.73 | Cc1sc(C=C2C(=O)ON=C2c2ccccc2Cl)cc1Br [I-12] | 
3.70 | Cc1ccsc1C=C1C(=O)ON=C1c1ccc(Cl)cc1 [I-26] | 
3.81 | Cc1ccc(C)c(C2=NOC(=O)C2=Cc2sccc2C)c1 [I-124] | 
3.28 | O=C1ON=C(c2cc(F)ccc2Cl)C1=Cc1cccs1 [I-127] | 
3.24 | COc1cccc(C2=NOC(=O)C2=Cc2sccc2C)c1 [U-13] | 
3.56 | Cc1ccsc1C=C1C(=O)ON=C1c1ccccc1I [I-107] | 
3.78 | Cc1cc(C)cc(C2=NOC(=O)C2=Cc2cccs2)c1 [I-89] | 
3.36 | Cc1cccc(C2=NOC(=O)C2=Cc2cccs2)c1 [I-80] | 
4.16 | O=C1ON=C(c2ccc(-c3ccccc3)cc2)C1=Cc1cccs1 [I-66] | 
3.07 | O=C1ON=C(c2cc(F)ccc2F)C1=Cc1cccs1 [I-126] | 
3.92 | O=C1ON=C(c2ccccc2Cl)C1=Cc1cc(Br)cs1 [I-11] | 
